Reference: PubChem BioAssay (NCI)
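Test compounds were applied to cells in 96-well plates for 48 hours at 5 doses. TGI marks complete inhibition of growth.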

Assays:
Assay in all cases: inhibition of tumour cell growth, NCI panel, 48 h
[1] = system: MOLT-4 leukemia
[2] = system: 786-0 renal
[3] = system: HCT-116 colon
[4] = system: OVCAR-8 ovarian
[5] = system: UO-31 renal
[6] = system: PC-3 prostate
[7] = system: DU-145 prostate
[8] = system: CAKI-1 renal
[9] = system: M14 melanoma
[10] = system: MDA-MB-231 breast
[11] = system: OVCAR-5 ovarian
[12] = system: UACC-62 melanoma
[13] = system: OVCAR-4 ovarian
[14] = system: LOX IMVI melanoma
[15] = system: RXF 393 renal
[16] = system: MDA-N
[17] = system: HOP-92 NSCLC
[18] = system: NCI-H23 lung
[19] = system: RPMI-8226 leukemia
[20] = system: NCI-H460 lung
[21] = system: UACC-257 melanoma
[22] = system: COLO 205 colon
[23] = system: CCRF-CEM leukemia
[24] = system: SN12C renal
[25] = system: SK-MEL-28 melanoma
[26] = system: MALME-3M melanoma
[27] = system: SF-539 CNS
[28] = system: SNB-19 CNS
[29] = system: MDA-MB-435
[30] = system: KM12 colon
[31] = system: SK-OV-3 ovarian
[32] = system: SNB-75 CNS
[33] = system: A549 NSCLC
[34] = system: HL-60(TB) leukemia
[35] = system: IGROV1 ovarian
[36] = system: NCI-H226 lung
[37] = system: SK-MEL-5 melanoma
[38] = system: SW-620 colon
[39] = system: T-47D breast
[40] = system: K-562 leukemia
[41] = system: HT29 colon
[42] = system: TK-10 renal
[43] = system: NCI/ADR-RES ovarian
[44] = system: SF-268 CNS
[45] = system: OVCAR-3 ovarian
[46] = system: SK-MEL-2 melanoma
[47] = system: NCI-H522 lung
[48] = system: BT-549 breast
[49] = system: EKVX NSCLC
[50] = system: HS 578T breast
[51] = system: SF-295 CNS
[52] = system: ACHN renal
[53] = system: HOP-62 NSCLC
[54] = system: HCC-2998 colon
[55] = system: HCT-15 colon
[56] = system: U251 CNS
[57] = system: A498 renal
[58] = system: MCF7 breast

NC(=S)NS(=O)(=O)c1ccc(Cl)cc1Cl
TGI [1]: > 100 µM
TGI [2]: > 100 µM
TGI [3]: > 100 µM
TGI [4]: > 100 µM
TGI [5]: > 100 µM
TGI [6]: > 100 µM
TGI [7]: > 100 µM
TGI [8]: > 100 µM
TGI [9]: > 100 µM
TGI [10]: > 100 µM
TGI [11]: > 100 µM
TGI [12]: > 100 µM
TGI [13]: > 100 µM
TGI [14]: > 100 µM
TGI [15]: > 100 µM
TGI [16]: > 100 µM
TGI [17]: > 100 µM
TGI [18]: > 100 µM
TGI [19]: > 100 µM
TGI [20]: > 100 µM
TGI [21]: > 100 µM
TGI [22]: > 100 µM
TGI [23]: > 100 µM
TGI [24]: > 100 µM
TGI [25]: > 100 µM
TGI [26]: > 100 µM
TGI [27]: > 100 µM
TGI [28]: > 100 µM
TGI [29]: > 100 µM
TGI [30]: > 100 µM
TGI [31]: > 100 µM
TGI [32]: > 100 µM
TGI [33]: > 100 µM
TGI [34]: > 100 µM
TGI [35]: > 100 µM
TGI [36]: > 100 µM
TGI [37]: > 100 µM
TGI [38]: > 100 µM
TGI [39]: > 100 µM
TGI [40]: > 100 µM
TGI [41]: > 100 µM
TGI [42]: > 100 µM
TGI [43]: > 100 µM
TGI [44]: > 100 µM
TGI [45]: > 100 µM
TGI [46]: > 100 µM
TGI [47]: > 100 µM
TGI [48]: > 100 µM
TGI [49]: > 100 µM
TGI [50]: > 100 µM
TGI [51]: > 100 µM
TGI [52]: > 100 µM
TGI [53]: > 100 µM
TGI [54]: > 100 µM
TGI [55]: > 100 µM
TGI [56]: > 100 µM

C[C@@H](CC(O)C(O)C(C)(C)O)C1CCC23CC12CCC1[C@@]2(C)CCC(=O)C(C)(C)C2CC(OC2OC(CO)C(O)C(O)C2O)[C@]13C (stereo not given in full)
TGI [1]: > 10 µM
TGI [2]: > 10 µM
TGI [3]: > 10 µM
TGI [4]: > 10 µM
TGI [5]: > 10 µM
TGI [6]: > 10 µM
TGI [7]: > 10 µM
TGI [8]: > 10 µM
TGI [9]: > 10 µM
TGI [10]: > 10 µM
TGI [11]: > 10 µM
TGI [12]: > 10 µM
TGI [13]: > 10 µM
TGI [14]: > 10 µM
TGI [15]: > 10 µM
TGI [16]: > 10 µM
TGI [17]: > 10 µM
TGI [18]: > 10 µM
TGI [57]: > 10 µM
TGI [19]: > 10 µM
TGI [20]: > 10 µM
TGI [22]: > 10 µM
TGI [23]: > 10 µM
TGI [24]: > 10 µM
TGI [25]: > 10 µM
TGI [26]: > 10 µM
TGI [27]: > 10 µM
TGI [28]: > 10 µM
TGI [29]: > 10 µM
TGI [30]: > 10 µM
TGI [31]: > 10 µM
TGI [32]: > 10 µM
TGI [33]: > 10 µM
TGI [34]: > 10 µM
TGI [35]: > 10 µM
TGI [36]: > 10 µM
TGI [37]: > 10 µM
TGI [38]: > 10 µM
TGI [39]: > 10 µM
TGI [40]: > 10 µM
TGI [41]: > 10 µM
TGI [42]: > 10 µM
TGI [43]: > 10 µM
TGI [44]: > 10 µM
TGI [45]: > 10 µM
TGI [46]: > 10 µM
TGI [47]: > 10 µM
TGI [48]: > 10 µM
TGI [49]: > 10 µM
TGI [58]: > 10 µM
TGI [50]: > 10 µM
TGI [51]: > 10 µM
TGI [52]: > 10 µM
TGI [53]: > 10 µM
TGI [54]: > 10 µM
TGI [55]: > 10 µM
TGI [56]: > 10 µM

Cn1c(=O)n2n(c1=O)C1C(=CC2)C2C=CC1n1c(=O)n(C)c(=O)n12 (stereo not given)
TGI [1]: > 100 µM
TGI [2]: > 100 µM
TGI [3]: > 100 µM
TGI [4]: > 100 µM
TGI [5]: > 100 µM
TGI [6]: > 100 µM
TGI [7]: > 100 µM
TGI [8]: > 100 µM
TGI [9]: > 100 µM
TGI [10]: > 100 µM
TGI [11]: > 100 µM
TGI [12]: > 100 µM
TGI [14]: > 100 µM
TGI [15]: > 100 µM
TGI [16]: > 100 µM
TGI [17]: > 100 µM
TGI [18]: > 100 µM
TGI [57]: > 100 µM
TGI [19]: > 100 µM
TGI [20]: > 100 µM
TGI [21]: > 100 µM
TGI [22]: > 100 µM
TGI [23]: > 100 µM
TGI [24]: > 100 µM
TGI [25]: > 100 µM
TGI [26]: > 100 µM
TGI [27]: > 100 µM
TGI [28]: > 100 µM
TGI [29]: > 100 µM
TGI [30]: > 100 µM
TGI [31]: > 100 µM
TGI [32]: > 100 µM
TGI [33]: > 100 µM
TGI [34]: > 100 µM
TGI [35]: > 100 µM
TGI [36]: > 100 µM
TGI [37]: > 100 µM
TGI [38]: > 100 µM
TGI [39]: > 100 µM
TGI [40]: > 100 µM
TGI [41]: > 100 µM
TGI [42]: > 100 µM
TGI [43]: > 100 µM
TGI [44]: > 100 µM
TGI [45]: > 100 µM
TGI [46]: > 100 µM
TGI [47]: > 100 µM
TGI [48]: > 100 µM
TGI [49]: > 100 µM
TGI [50]: > 100 µM
TGI [51]: > 100 µM
TGI [52]: > 100 µM
TGI [53]: > 100 µM
TGI [55]: > 100 µM
TGI [56]: > 100 µM

NC(=O)CN1CCN(c2nc(N3CCCC3)c3nc(Cl)c(NCc4ccccc4)nc3n2)CC1
TGI [1]: 20.3 µM
TGI [2]: 18 µM
TGI [3]: 14.7 µM
TGI [4]: > 50 µM
TGI [5]: 21.9 µM
TGI [6]: 24.9 µM
TGI [7]: 28.8 µM
TGI [8]: > 50 µM
TGI [9]: 17.5 µM
TGI [10]: 20.6 µM
TGI [11]: 17.9 µM
TGI [12]: 17.2 µM
TGI [13]: 48.2 µM
TGI [14]: 16.5 µM
TGI [15]: 16.2 µM
TGI [16]: 16.4 µM
TGI [17]: 20.6 µM
TGI [18]: 35.6 µM
TGI [19]: 19.8 µM
TGI [20]: 17.5 µM
TGI [21]: 19.7 µM
TGI [22]: 15.8 µM
TGI [23]: > 50 µM
TGI [24]: 16.9 µM
TGI [25]: 18.5 µM
TGI [26]: 16.3 µM
TGI [27]: 17.5 µM
TGI [28]: 18.9 µM
TGI [29]: 20.5 µM
TGI [30]: 22 µM
TGI [31]: 20.4 µM
TGI [32]: 24.4 µM
TGI [33]: 35.2 µM
TGI [34]: 19.2 µM
TGI [35]: 25.5 µM
TGI [36]: 39.9 µM
TGI [37]: 15.7 µM
TGI [38]: 31.4 µM
TGI [39]: 20.7 µM
TGI [40]: 21 µM
TGI [41]: 18 µM
TGI [42]: 34.7 µM
TGI [43]: 40.9 µM
TGI [44]: 17 µM
TGI [45]: 16.3 µM
TGI [46]: 17.3 µM
TGI [47]: 24.1 µM
TGI [48]: 19.5 µM
TGI [49]: 30.3 µM
TGI [58]: 16.6 µM
TGI [50]: 24.2 µM
TGI [51]: 16.3 µM
TGI [52]: 32.2 µM
TGI [53]: 4.89 µM
TGI [54]: 15.4 µM
TGI [55]: 17.3 µM
TGI [56]: 15.5 µM
